Experimental data as given in patent publication US4214093A, “Amino- or guanidino-1,2,3,4-tetrahydro-1-naphthoic esters” (Torii & Co., Ltd., priority 1977, dated 1980).
Where two headings read alike, the source gives them in different places.

Experiments:
Trypsin = target: T1, Trypsin (Bos taurus, UniProt P00760); assay: Inhibitory effect on ester-hydrolyzing activity of trypsin (TAMe substrate); assay type: biochemical; settings: for IC50: in vitro, TAMe, pH 8.6, 37° C., Table 4 bracketed value, read-out: Trypsin ID50; for inhibition at 1000 µM: read-out: Trypsin percent inhibition
T1 sequence (P00760 24-246): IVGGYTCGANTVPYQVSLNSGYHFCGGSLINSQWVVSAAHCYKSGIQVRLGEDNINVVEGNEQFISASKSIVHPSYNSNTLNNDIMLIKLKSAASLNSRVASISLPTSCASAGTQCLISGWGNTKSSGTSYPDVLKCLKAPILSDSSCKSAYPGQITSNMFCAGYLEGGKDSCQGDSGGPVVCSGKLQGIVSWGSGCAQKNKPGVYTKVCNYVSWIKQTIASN
Procedure: (§1) The enzyme-inhibitory activities in vitro of the compounds of this invention were measured by the following procedure according to the method of M. Muramatsu et al. [[…]. […] After the incubation, 1.5 ml of 2 M alkaline hydroxylamine was added and thoroughly mixed, and allowed to stand at room temperature for 15 minutes.

Human Plasmin = Human Plasmin (Homo sapiens, UniProt P00747); assay: Inhibitory effect on ester-hydrolyzing activity of human plasmin (TAMe substrate); assay type: biochemical; settings: for inhibition at 1000 µM: read-out: Plasmin percent inhibition; for IC50: Table 4 bracketed value, read-out: Plasmin ID50
Procedure: as §1, with “minutes. […] It was measured by using 0.1 ml of plasmin (generated by activation of plasminogen with streptokinase) and TAMe as substrate following the method described in (1).” for “minutes.”

Human Plasma Kallikrein = Human Plasma Kallikrein (Homo sapiens, UniProt P03952); assay: Inhibitory effect on ester-hydrolyzing activity of human plasma kallikrein (TAMe substrate); assay type: biochemical; settings: for IC50: Table 4 bracketed value, read-out: Kallikrein ID50; for inhibition at 1000 µM: read-out: Kallikrein percent inhibition
Procedure: as §1

Bovine Thrombin = Bovine Thrombin (Bos taurus, UniProt P00735); assay: Inhibitory effect on ester-hydrolyzing activity of bovine thrombin (TAMe substrate); assay type: biochemical
Procedure: The enzyme-inhibitory activities in vitro of the compounds of this invention were measured by the following procedure according to the method of M. Muramatsu et al. [M. Muramatsu, T. Onishi, S. Makino, Y. Hayashi and S. Fujii: J. Biochem., 58, 214 (1965)]
To 0.1 ml of trypsin (5 μg/ml) were added 0.5 ml of 0.1 M borate buffer solution (pH 8.6) containing 10 mM CaCl2, and 0.1 ml of a varying concentration of an inhibitor solution, and preincubation was carried out at 37° C. for 5 minutes. Then, 10 μmoles of the substrate, TAMe (tosylarginine methyl ester), was added, and incubation was preformed at 37° C. for 30 minutes.
After the incubation, 1.5 ml of 2 M alkaline hydroxylamine was added and thoroughly mixed, and allowed to stand at room temperature for 15 minutes. Then, 1.0 ml of each of 18% trichloroacetic acid, 4 N HCl and 10% FeCl3 was added and thoroughly mixed. If necessary, the mixture was centrifuged at 3,000 rpm for 10 minutes, and the absorbance of the supernatant was measured at 530 nm.
It was measured by using 0.4 ml of bovine thrombin […], 0.02 M sodium phosphate buffer solution (pH 7.4) and TAMe as substrate following the method described in (1).

Human Cl Esterase = target: T2, Human Cl Esterase (Homo sapiens, UniProt P09871); assay: Inhibitory effect on ester-hydrolyzing activity of human Cl esterase (ATEe substrate); assay type: biochemical; settings: for inhibition at 1000 µM: read-out: Cl-esterase percent inhibition; for IC50: pH 7.4, Table 4 bracketed value, read-out: Cl-esterase ID50
T2 sequence (P09871 438-688 limits assumed): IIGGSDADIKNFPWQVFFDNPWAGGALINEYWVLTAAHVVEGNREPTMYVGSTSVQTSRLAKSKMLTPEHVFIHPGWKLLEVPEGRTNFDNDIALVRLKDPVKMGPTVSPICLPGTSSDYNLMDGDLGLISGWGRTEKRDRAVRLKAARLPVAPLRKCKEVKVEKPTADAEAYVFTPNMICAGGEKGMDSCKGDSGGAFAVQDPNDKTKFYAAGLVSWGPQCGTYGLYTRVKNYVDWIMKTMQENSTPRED
T2 sequence (P09871 16-437 partner limits assumed): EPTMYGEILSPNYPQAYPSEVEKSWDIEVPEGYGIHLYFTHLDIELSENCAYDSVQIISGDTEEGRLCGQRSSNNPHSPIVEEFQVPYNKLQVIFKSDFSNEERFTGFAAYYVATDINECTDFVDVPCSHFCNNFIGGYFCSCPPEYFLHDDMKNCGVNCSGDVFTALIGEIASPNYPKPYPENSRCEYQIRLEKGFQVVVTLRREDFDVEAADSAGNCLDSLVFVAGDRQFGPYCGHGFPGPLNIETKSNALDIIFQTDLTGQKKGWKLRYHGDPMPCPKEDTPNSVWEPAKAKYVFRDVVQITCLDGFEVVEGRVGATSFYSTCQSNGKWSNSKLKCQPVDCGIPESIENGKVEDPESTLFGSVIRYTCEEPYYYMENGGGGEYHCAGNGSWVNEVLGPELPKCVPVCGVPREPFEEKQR
Procedure: It was measured by using 0.1 ml of Cl esterase, 0.1 ml of 0.02 M sodium phosphate buffer solution (pH 7.4 ) and 10 μmoles of ATEe (acetyltyrosine ethyl ester) as substrate following the method described in (1).

thrombin = assay: Inhibitory activity on thrombus formation: protection from lethal thrombin injection in mice; assay type: in vivo, mice (ddY strain); settings: 10 minutes before thrombin 300 NIH units/kg i.v., No. 91 in 2.5% gum arabic
Procedure: White male mice (ddY strain), 4 weeks age and weighing 18-27 g, were used throughout the experiments. […] The intravenous injection of 300 NIH units/kg of thrombin over 30 seconds into mice was lethal to all animals. The compounds were intraperitoneally administered in doses of 1, 10, and 100 mg/kg in saline unless otherwise described.
Compounds were intraperitoneally administered 10 minutes before thrombin injection. Compound No. 91 was dissolved in 2.5% gum arabic.

[1] = test system: clotting activity of thrombin; assay: Inhibitory activity on plasma clotting (rabbit platelet poor plasma, thrombin-induced); assay type: biochemical
Procedure: Blood was drawn from carotid artery of an ether anesthetized rabbit with 1/10 volume of 3.8% sodium citrate. Platelet poor plasma (PPP) was prepared from citrated blood which was centrifuged at 3,000 r.p.m. for 15 minutes at 4° C. PPP, 0.9 ml, was taken into cell, 10μ of a compound solution was added and incubated at 37° C. for 10 minutes. […] Compounds were dissolved in distilled water or 50% dimethyl sulfoxide (0.5% final concentration).

Sequence of Human Plasmin (P00747 581-810 limits assumed): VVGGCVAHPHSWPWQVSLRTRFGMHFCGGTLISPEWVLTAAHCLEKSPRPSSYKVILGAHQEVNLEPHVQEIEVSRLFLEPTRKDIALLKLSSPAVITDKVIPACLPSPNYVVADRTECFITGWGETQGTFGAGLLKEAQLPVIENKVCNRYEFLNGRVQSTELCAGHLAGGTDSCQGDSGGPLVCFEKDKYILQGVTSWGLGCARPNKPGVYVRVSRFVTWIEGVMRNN
Sequence of Human Plasmin (P00747 97-580 partner limits assumed): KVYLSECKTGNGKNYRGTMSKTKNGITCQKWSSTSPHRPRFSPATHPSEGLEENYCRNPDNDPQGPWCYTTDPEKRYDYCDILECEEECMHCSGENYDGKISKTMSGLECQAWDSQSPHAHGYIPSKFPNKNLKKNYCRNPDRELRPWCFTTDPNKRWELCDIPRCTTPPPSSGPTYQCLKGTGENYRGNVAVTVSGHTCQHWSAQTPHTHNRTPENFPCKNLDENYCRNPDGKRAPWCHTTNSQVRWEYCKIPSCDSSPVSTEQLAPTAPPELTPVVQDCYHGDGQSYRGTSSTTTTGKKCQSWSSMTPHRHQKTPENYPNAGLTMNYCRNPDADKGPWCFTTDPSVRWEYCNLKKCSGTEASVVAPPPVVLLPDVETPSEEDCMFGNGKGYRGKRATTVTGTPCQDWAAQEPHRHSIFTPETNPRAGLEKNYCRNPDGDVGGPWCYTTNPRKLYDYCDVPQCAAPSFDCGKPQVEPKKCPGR
Sequence of Human Plasma Kallikrein (P03952 391-638 limits assumed): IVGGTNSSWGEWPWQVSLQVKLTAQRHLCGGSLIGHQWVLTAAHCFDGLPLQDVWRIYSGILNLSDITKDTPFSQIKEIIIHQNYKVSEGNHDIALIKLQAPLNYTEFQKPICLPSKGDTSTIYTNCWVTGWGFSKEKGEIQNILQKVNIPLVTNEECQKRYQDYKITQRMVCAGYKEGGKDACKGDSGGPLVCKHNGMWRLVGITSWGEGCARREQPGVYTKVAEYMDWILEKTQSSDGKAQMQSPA
Sequence of Human Plasma Kallikrein (P03952 20-390 partner limits assumed): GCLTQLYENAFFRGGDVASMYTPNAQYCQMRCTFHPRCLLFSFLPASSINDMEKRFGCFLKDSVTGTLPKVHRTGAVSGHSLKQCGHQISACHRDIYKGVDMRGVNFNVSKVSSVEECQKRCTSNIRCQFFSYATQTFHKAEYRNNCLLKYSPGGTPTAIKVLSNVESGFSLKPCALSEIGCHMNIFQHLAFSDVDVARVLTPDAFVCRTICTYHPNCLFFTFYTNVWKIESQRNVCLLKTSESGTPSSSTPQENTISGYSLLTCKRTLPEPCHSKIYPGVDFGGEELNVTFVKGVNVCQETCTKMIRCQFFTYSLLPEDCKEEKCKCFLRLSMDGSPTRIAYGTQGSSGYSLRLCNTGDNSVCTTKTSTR

Row | Structure (SMILES) | IC50 (Trypsin) [µM] | IC50 (Human Plasma Kallikrein; in vitro, TAMe) [µM] | IC50 (Bovine Thrombin) [µM] | inhibition at 1000 µM (Human Cl Esterase) [%] | inhibition at 1000 µM (Trypsin) [%] | IC50 (Human Plasmin; in vitro, TAMe) [µM] | IC50 (Human Cl Esterase; in vitro, ATEe) [µM] | inhibition at 1000 µM (Human Plasma Kallikrein; at 10^-3 M, in vitro, TAMe) [%] | further results
1 | COc1ccc(OC(=O)C2CCCc3ccc(NC(=N)N)cc32)cc1.Cl (stereo not drawn) [Compound 138, p-methoxyphenyl 7-guanidino-1,2,3,4-tetrahydro-1-naphthoate hydrochloride] | 1000 | 280 | 32 | 39 |  |  |  |  | inhibition at 1000 µM (Human Plasmin; at 10^-3 M, in vitro, TAMe): 17%; % protective (thrombin; 1 mg/kg i.p.): 0%; Survived / Tested (thrombin; 1 mg/kg i.p.): 0/10; % protective (thrombin; 10 mg/kg i.p.): 20%; Survived / Tested (thrombin; 10 mg/kg i.p.): 2/10; % protective (thrombin; 100 mg/kg i.p.): 30%; Survived / Tested (thrombin; 100 mg/kg i.p.): 3/10
2 | COC(=O)c1ccc(OC(=O)C2CCCc3ccc(N)cc32)cc1 (stereo not drawn) [Compound 91] | 17 |  | 210 | 27.4 |  |  |  |  | inhibition at 1000 µM (Human Plasmin; at 10^-3 M, in vitro, TAMe): 40.7%; % protective (thrombin; 1 mg/kg i.p.): 0%; Survived / Tested (thrombin; 1 mg/kg i.p.): 0/10; % protective (thrombin; 10 mg/kg i.p.): 0%; Survived / Tested (thrombin; 10 mg/kg i.p.): 0/10; % protective (thrombin; 100 mg/kg i.p.): 20%; Survived / Tested (thrombin; 100 mg/kg i.p.): 2/10
3 | CCCCOc1ccc(OC(=O)C2CCCc3ccc(NC(=N)N)cc32)cc1 (stereo not drawn) [Compound 142] |  | 76 | 24 |  | 36.9 | 360 | 460 |  | Percent inhibition of clotting activity ([1]; 3 × 10^-4 M, DMSO control): 13.0%; Percent inhibition of clotting activity ([1]; 3 × 10^-5 M, DMSO control): -3.0%; Percent inhibition of clotting activity ([1]; 10^-3 M, DMSO control): 61.0%; Percent inhibition of clotting activity ([1]; 10^-4 M, DMSO control): 0.0%; Percent inhibition of clotting activity ([1]; 10^-5 M, DMSO control): -5.0%
4 | CCOC(=O)COC(=O)c1ccc(OC(=O)C2CCCc3c(N)cccc32)cc1 (stereo not drawn) [Compound 70] | 52 |  |  |  |  |  |  | 14.1 | inhibition at 1000 µM (Human Plasmin; at 10^-3 M, in vitro, TAMe): 26.2%; inhibition at 1000 µM (Bovine Thrombin; at 10^-3 M, in vitro, TAMe, read-out: Thrombin percent inhibition): 22%; inhibition at 1000 µM (Human Cl Esterase; at 10^-3 M, in vitro, ATEe): < 3.2%
5 | Cl.N=C(N)Nc1ccc2c(c1)C(C(=O)Oc1ccccc1)CCC2 (stereo not drawn) [Compound 134, phenyl 7-guanidino-1,2,3,4-tetrahydro-1-naphthoate hydrochloride] |  | 290 | 27 |  | 40.6 |  | 370 |  | inhibition at 1000 µM (Human Plasmin): < 3.2%; inhibitory activity on plasmin (Human Plasmin; text of Examples): no activity at all; inhibitory activity on kallikrein (Human Plasma Kallikrein; text of Examples): had an inhibitory activity; inhibitory activity on Cl-esterase (Human Cl Esterase; text of Examples): had an inhibitory activity; Percent inhibition of clotting activity ([1]; 3 × 10^-4 M, H2O control): 97.8%; Percent inhibition of clotting activity ([1]; 3 × 10^-5 M, H2O control): 11.1%; Percent inhibition of clotting activity ([1]; 10^-3 M, H2O control): 100%; Percent inhibition of clotting activity ([1]; 10^-4 M, H2O control): 42.2%; Percent inhibition of clotting activity ([1]; 10^-5 M, H2O control): 13.3%; % protective (thrombin; 1 mg/kg i.p.): 0%; Survived / Tested (thrombin; 1 mg/kg i.p.): 0/9; % protective (thrombin; 10 mg/kg i.p.): 10%; Survived / Tested (thrombin; 10 mg/kg i.p.): 1/10; % protective (thrombin; 100 mg/kg i.p.): 70%; Survived / Tested (thrombin; 100 mg/kg i.p.): 7/10
6 | NC(=O)COC(=O)c1ccc(OC(=O)C2CCCc3c(N)cccc32)cc1 (stereo not drawn) [Compound 71] | 31 |  | 62 | 30.6 |  | 54 |  | 23.4 | 
7 | N=C(N)c1ccc(CC(=O)C(=O)O)cc1 [APPA-Na, sodium p-amidinophenyl pyruvate, reference compound] |  |  |  |  |  |  |  |  | Percent inhibition of clotting activity ([1]; 3 × 10^-4 M, DMSO control): 86.5%; Percent inhibition of clotting activity ([1]; 3 × 10^-5 M, DMSO control): -9.5%; Percent inhibition of clotting activity ([1]; 10^-3 M, DMSO control): 100.0%; Percent inhibition of clotting activity ([1]; 10^-4 M, DMSO control): 44.2%; Percent inhibition of clotting activity ([1]; 10^-5 M, DMSO control): -11.7%; % protective (thrombin; 1 mg/kg i.p.): 0%; Survived / Tested (thrombin; 1 mg/kg i.p.): 0/9; % protective (thrombin; 10 mg/kg i.p.): 33%; Survived / Tested (thrombin; 10 mg/kg i.p.): 3/9; % protective (thrombin; 100 mg/kg i.p.): 46%; Survived / Tested (thrombin; 100 mg/kg i.p.): 5/11
8 | CCOC(=O)COC(=O)CCc1ccc(OC(=O)C2CCCc3ccc(NC(=N)N)cc32)cc1 (stereo not drawn) [Compound 157] |  |  | 120 |  | 48.8 | 210 | 420 |  | inhibition at 1000 µM (Human Plasma Kallikrein): 48.5%
9 | N=C(N)Nc1ccc2c(c1)C(C(=O)Oc1ccc(Cl)cc1)CCC2 (stereo not drawn) [Compound 137] | 78 | 120 | 45 |  |  | 1000 | 250 |  | Percent inhibition of clotting activity ([1]; 3 × 10^-5 M, H2O control): 10.0%; Percent inhibition of clotting activity ([1]; 10^-4 M, H2O control): 2.0%; Percent inhibition of clotting activity ([1]; 10^-5 M, H2O control): -5.0%
10 | CCCCOc1ccc(OC(=O)C2CCCc3c(NC(=N)N)cccc32)cc1 (stereo not drawn) [Compound 116] |  |  | 1000 |  | < 3.2 | 1000 | 350 |  | inhibition at 1000 µM (Human Plasma Kallikrein): 29.3%
11 | CN(C)C(=O)COC(=O)Cc1ccc(OC(=O)C2CCCc3ccc(N)cc32)cc1 (stereo not drawn) [Compound 101] | 110 |  | 300 | 31.5 |  | 48 |  | 34.4 | 
12 | COC(=O)c1cccc(OC(=O)C2CCCc3ccc(N)cc32)c1 (stereo not drawn) [Compound 92] | 98 |  | 1000 | 27.3 |  |  |  | < 3.2 | inhibition at 1000 µM (Human Plasmin; at 10^-3 M, in vitro, TAMe): < 3.2%
13 | CN(C)C(=O)COC(=O)CCc1ccc(OC(=O)C2CCCc3ccc(NC(=N)N)cc32)cc1 (stereo not drawn) [Compound 158] |  | 420 | 100 |  | 29.1 | 400 | 700 |  | 
14 | N=C(N)Nc1cccc2c1CCCC2C(=O)Oc1ccc(C(=O)OCC(N)=O)cc1 (stereo not drawn) [Compound 126] | 75 |  | 290 | 30.6 |  | 580 |  | 46.9 | 
15 | N#Cc1ccc(OC(=O)C2CCCc3ccc(NC(=N)N)cc32)cc1 (stereo not drawn) [Compound 163] | 130 | 52 | 17 |  |  | 73 | 400 |  | 
